Assay results taken from BindingDB's records for doi:10.1016/s0960-894x(99)00659-9 (Kyoto Pharmaceutical University, 2000).
pIC50: −log10 of the molar value.

Test: Inhibitory activity against porcine pancreatic elastase (PPE)

SMILES | pIC50
O=C(CCc1cccc(C(F)(F)F)c1)N[C@@H](Cc1ccccc1)C(=O)CCl [N-((S)-1-Benzyl-3-chloro-2-oxo-propyl)-3-(3-trifluoromethyl-phenyl)-propionamide] | 4.43
O=C(CCc1cccc(F)c1)N[C@@H](Cc1ccccc1)C(=O)CCl [N-((S)-1-Benzyl-3-chloro-2-oxo-propyl)-3-(3-fluoro-phenyl)-propionamide] | 3.55
O=C(CCc1cccc(O)c1)N[C@@H](Cc1ccccc1)C(=O)CCl [N-((S)-1-Benzyl-3-chloro-2-oxo-propyl)-3-(3-hydroxy-phenyl)-propionamide] | < 3.00
O=C(CCc1ccc(O)cc1)N[C@@H](Cc1ccccc1)C(=O)CCl [N-((S)-1-Benzyl-3-chloro-2-oxo-propyl)-3-(4-hydroxy-phenyl)-propionamide] | < 3.00
COc1ccccc1CCC(=O)N[C@@H](Cc1ccccc1)C(=O)CCl [N-((S)-1-Benzyl-3-chloro-2-oxo-propyl)-3-(2-methoxy-phenyl)-propionamide] | 4.07
Cc1ccc(CCC(=O)N[C@@H](Cc2ccccc2)C(=O)CCl)cc1 [N-((S)-1-Benzyl-3-chloro-2-oxo-propyl)-3-p-tolyl-propionamide] | 4.05
O=C(CCc1cccc(Cl)c1Cl)N[C@@H](Cc1ccccc1)C(=O)CCl [N-((S)-1-Benzyl-3-chloro-2-oxo-propyl)-3-(2,3-dichloro-phenyl)-propionamide] | 4.49
COc1cccc(CCC(=O)N[C@@H](Cc2ccccc2)C(=O)CCl)c1 [N-((S)-1-Benzyl-3-chloro-2-oxo-propyl)-3-(3-methoxy-phenyl)-propionamide] | 3.22
O=C(CCc1ccc(F)cc1)N[C@@H](Cc1ccccc1)C(=O)CCl [N-((S)-1-Benzyl-3-chloro-2-oxo-propyl)-3-(4-fluoro-phenyl)-propionamide] | 3.62
Cc1cccc(CCC(=O)N[C@@H](Cc2ccccc2)C(=O)CCl)c1 [N-((S)-1-Benzyl-3-chloro-2-oxo-propyl)-3-m-tolyl-propionamide] | 3.89
CC(C)c1ccc(CCC(=O)N[C@@H](Cc2ccccc2)C(=O)CCl)cc1 [N-((S)-1-Benzyl-3-chloro-2-oxo-propyl)-3-(4-isopropyl-phenyl)-propionamide] | 4.82
O=C(CCc1ccccc1)N[C@@H](Cc1ccccc1)C(=O)CCl [N-((S)-1-Benzyl-3-chloro-2-oxo-propyl)-3-phenyl-propionamide] | 3.82
O=C(CCc1ccc(C(F)(F)F)cc1)N[C@@H](Cc1ccccc1)C(=O)CCl [N-((S)-1-Benzyl-3-chloro-2-oxo-propyl)-3-(4-trifluoromethyl-phenyl)-propionamide] | 4.89
O=C(/C=C/c1ccccc1)N[C@@H](Cc1ccccc1)C(=O)CCl [N-((S)-1-Benzyl-3-chloro-2-oxo-propyl)-3-phenyl-acrylamide] | 4.59
